The values below come from US10894777B2, “TG2 inhibitor piperazine compounds and uses thereof” (UNIVERSITY OF OTTAWA, priority 2016, dated 2021).

A word on the kinact: it is the rate constant of inactivation at saturating inhibitor. What is called melting point is the temperature of the solid-liquid transition.

For data set [1], the target named is T1, TG2 (Homo sapiens, UniProt P21980).
T1 sequence (P21980 1-687): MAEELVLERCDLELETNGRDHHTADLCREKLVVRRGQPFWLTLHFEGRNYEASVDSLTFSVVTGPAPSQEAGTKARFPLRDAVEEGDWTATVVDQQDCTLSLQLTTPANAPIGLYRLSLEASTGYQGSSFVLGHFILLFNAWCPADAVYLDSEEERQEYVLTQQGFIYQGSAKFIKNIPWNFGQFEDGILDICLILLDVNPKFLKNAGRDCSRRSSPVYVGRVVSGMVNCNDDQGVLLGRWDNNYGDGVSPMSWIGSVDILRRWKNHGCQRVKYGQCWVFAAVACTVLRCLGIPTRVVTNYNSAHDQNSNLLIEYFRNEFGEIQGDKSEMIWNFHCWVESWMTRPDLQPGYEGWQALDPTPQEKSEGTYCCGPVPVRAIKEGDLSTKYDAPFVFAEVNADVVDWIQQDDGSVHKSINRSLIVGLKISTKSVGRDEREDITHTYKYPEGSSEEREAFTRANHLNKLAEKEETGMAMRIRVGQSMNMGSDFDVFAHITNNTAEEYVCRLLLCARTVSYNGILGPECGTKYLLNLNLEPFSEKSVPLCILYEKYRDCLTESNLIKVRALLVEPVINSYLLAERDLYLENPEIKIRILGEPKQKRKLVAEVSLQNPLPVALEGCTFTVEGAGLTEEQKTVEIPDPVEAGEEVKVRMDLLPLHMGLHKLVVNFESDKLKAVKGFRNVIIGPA
In words: Kinetic inactivation of purified recombinant human TG2, continuous spectrophotometric activity assay (Examples 3, 10). The data set is classed as biochemical. Further details: made in house. As to conditions: Table 4; for kinact/KI: read-out: kinact/Ki (μM^−1 min^−1), for ^a no saturation observed, efficiency obtained from initial slope. The method, then: Kinetic studies were carried out in vitro, using purified recombinant human TG2 (Roy, I. et al., Protein Expr. Purif. 87: 41-46, 2013) and a direct, continuous spectrophotometric activity assay (Leblanc, A. et al., Biochemistry 40: 8335-8342, 2001).
Kinetics. Kinetic runs were performed at 25° C. in 100 mM MOPS buffer (pH 7.0) containing 3 mM CaCl2 and 50 μM EDTA. […] Stock solutions of the substrate and inhibitors were prepared in DMF such that the final concentration of this co-solvent was constant at 10% v/v. Reactions were initiated with the addition of enzyme with an activity of approximately 0.05 U/mL. Kinetic evaluation was carried out by the method of Stone and Hofsteenge (Stone, S. R. and Hofsteenge, J., Biochem. J. 230: 497-502, 1985). […] Observed first-order rate constants of inactivation were determined from non-linear regression, to a mono-exponential model. These rate constants were in turn fit to equation 1 by non-linear regression, providing the kinetic parameters
Kinetic parameters were determined as described above.

Data set [2] deals with T1, TG2. Nature of the data set: Colorimetric transamidase activity assay (AL5 substrate), hTG2. Type of data set: biochemical. As to conditions: for kinact/KI: read-out: kinact/KI (10^3M^−1 min^−1); for enzyme inactivation, relative observed rate constants (kobs): high concentration of inhibitor (18 μM, FIG. 43).
Description: In Vitro Assays. Colorimetric transamidase activity assay. The activities of hTG1, hTG2 and hTG6 were measured via a colorimetric assay using the chromogenic substrate Cbz-Glu(γ-p-nitrophenyl ester)Gly (AL5). The assay was conducted at 25° C. in 100 mM MOPS buffer (pH 6.5) containing 3.0 mM CaCl2 and 50 μM EDTA. […] A stock solution of AL5 was prepared in DMSO such that the final concentration of this co-solvent was constant at 2.5% v/v. Stock solutions of the inhibitors were made in the buffer system previously described. The reaction was initiated with the addition of 40-60 mU/mL of the respective enzyme (0.10 μM hTG1, 0.25 μM hTG2 or 0.32 μM hTG6). Product formation was monitored at 405 nm in a polystyrene 96-well microplate using a BioTek Synergy 4 plate reader. […] Observed first-order rate constants of inactivation (kobs) were determined from non-linear regression fit to a mono-exponential model (Equation 1) of the observed absorbance of the enzymatic hydrolysis product, p-nitrophenolate (pNP). […] Experiments were done in triplicate and variation between repeats was less than 30%.
The mark [3] stands for this setting: Table 8, read-out: kinact (converted).
Setting [4] is: Table 5, read-out: kinact (converted).
Where [5] appears, read: Table 7, read-out: kinact (converted).

In the case of `C=CC(=O)NCCCC[C@H](NC(=O)OCc1ccccc1)C(=O)N1CCN(C(=O)c2ccc3ccccc3c2)CC1` [AA10, (S)-benzyl(1-(4-(2-naphthoyl)piperazin-1-yl)-6-acrylamido-1-oxohexan-2-yl)carbamate], the inactivation rate constant (kinact) in data set [1] and in data set [2] (setting [3]) was 0.0202 s⁻¹ in each case. For the same compound, the figures for the kinact/KI in data set [1] and in data set [2] (Table 8) were 4000 M⁻¹ s⁻¹ and 1500 M⁻¹ s⁻¹, respectively.

For `C=CC(=O)NCCCC[C@H](NC(=O)OCc1ccccc1)C(=O)NCCCCNS(=O)(=O)c1cccc2c(N(C)C)cccc12` [Compound 109, (S)-benzyl (6-acrylamido-1-((4-(5-(dimethylamino)naphthalene-1-sulfonamido)butyl)amino)-1-oxohexan-2-yl)carbamate], the melting point was 54 to 56 °C. Moreover, the kinact/KI in data set [1] was 883 M⁻¹ s⁻¹. For the same compound, the kinact in data set [2] (setting [4]) is 0.0365 s⁻¹. The kinact/KI in data set [2] (Table 5) was 1350 M⁻¹ s⁻¹.

Regarding `C=CC(=O)NCCCC[C@H](NC(=O)OCc1ccccc1)C(=O)NCCCNS(=O)(=O)c1cccc2c(N(C)C)cccc12` [Compound 110, (S)-benzyl (6-acrylamido-1-((3-(5-(dimethylamino)naphthalene-1-sulfonamido)propyl)amino)-1-oxohexan-2-yl)carbamate], the melting point fell in the range of 65 to 67 °C. Besides, the kinact/KI in data set [1] is 783 M⁻¹ s⁻¹. In data set [2] (setting [4]), the kinact was 0.0142 s⁻¹. The kinact/KI in data set [2] (Table 5) is 460 M⁻¹ s⁻¹.

Consider `C=CC(=O)NCCCC[C@H](NC(=O)OCc1ccccc1)C(=O)NCCNS(=O)(=O)c1cccc2c(N(C)C)cccc12` [Compound 111, (S)-benzyl (6-acrylamido-1-((2-(5-(dimethylamino)naphthalene-1-sulfonamido)ethyl)amino)-1-oxohexan-2-yl)carbamate], for which the inactivation rate constant (kinact) in data set [1] and in data set [2] (setting [4]) was 0.0242 s⁻¹ each time. The kinact/KI in data set [1] was 1030 M⁻¹ s⁻¹; in data set [2] (Table 5), 1020 M⁻¹ s⁻¹.

For `C=CC(=O)NC[C@H](NC(=O)OCc1ccccc1)C(=O)N1CCN(S(=O)(=O)c2cccc3c(N(C)C)cccc23)CC1` [Compound 115, (S)-benzyl (3-acrylamido-1-(4-((5-(dimethylamino)naphthalen-1-yl)sulfonyl)piperazin-1-yl)-1-oxopropan-2-yl)carbamate], the “enzyme inactivation, relative observed rate constants (kobs)” value in data set [2] is “no significant enzyme inactivation was observed”.

Turning to `C=CC(=O)NCC[C@H](NC(=O)OCc1ccccc1)C(=O)N1CCN(S(=O)(=O)c2cccc3c(N(C)C)cccc23)CC1` [Compound 116, (S)-benzyl (4-acrylamido-1-(4-((5-(dimethylamino)naphthalen-1-yl)sulfonyl)piperazin-1-yl)-1-oxobutan-2-yl)carbamate], the “enzyme inactivation, relative observed rate constants (kobs)” value in data set [2] is given as “no significant enzyme inactivation was observed”.

`C=CC(=O)NCCC[C@H](NC(=O)OCc1ccccc1)C(=O)N1CCN(S(=O)(=O)c2cccc3c(N(C)C)cccc23)CC1` [Compound 117, (S)-benzyl (5-acrylamido-1-(4-((5-(dimethylamino)naphthalen-1-yl)sulfonyl)piperazin-1-yl)-1-oxopentan-2-yl)carbamate] had a melting point of 69 to 70 °C. In data set [1], the kinact is 0.0134 s⁻¹ and the kinact/KI was 1480 M⁻¹ s⁻¹. In addition, the kinact in data set [2] (Table 6, read-out: kinact (converted)) was 0.0197 s⁻¹. The “enzyme inactivation, relative observed rate constants (kobs)” value in data set [2] is “reappearance of enzyme inhibition albeit only modestly”. The kinact/KI in data set [2] (Table 6) was 412 M⁻¹ s⁻¹.

On to `C=CC(=O)NCCCC[C@H](NC(=O)OCc1ccccc1)C(=O)N1CCN(S(=O)(=O)c2cccc3ccccc23)CC1` [Compound 128, (S)-benzyl 6-acrylamido-1-(4-(naphthalen-1-ylsulfonyl)piperazin-1-yl)-1-oxohexan-2-yl-carbamate], for which the melting point fell in the range of 59 to 61 °C. Also, in data set [1], the kinact was 0.0082 s⁻¹ and the kinact/KI was 2130 M⁻¹ s⁻¹. In addition, in data set [2], the “rate constant of inactivation relative to VA4” value was “more than three-fold less”. Also, the kinact in data set [2] (setting [5]) is 0.0065 s⁻¹. For the same compound, the kinact/KI in data set [2] (Table 7) is 620 M⁻¹ s⁻¹.

For the compound `C=CC(=O)NCCCC[C@H](NC(=O)OCc1ccccc1)C(=O)N1CCN(S(=O)(=O)c2ccccc2)CC1` [Compound 130, (S)-benzyl (6-acrylamido-1-oxo-1-(4-(phenylsulfonyl)piperazin-1-yl)hexan-2-yl)carbamate], the kinact in data set [1] is 0.0102 s⁻¹; in data set [2] (setting [5]), 0.00783 s⁻¹. Besides, the kinact/KI in data set [1] was 2180 M⁻¹ s⁻¹; in data set [2] (Table 7), 888 M⁻¹ s⁻¹.

Take `C=CC(=O)NCCCC[C@H](NC(=O)OCc1ccccc1)C(=O)N1CCN(S(=O)(=O)C2CCCCC2)CC1` [Compound 132, (S)-benzyl (6-acrylamido-1-(4-(cyclohexylsulfonyl)piperazin-1-yl)-1-oxohexan-2-yl)carbamate]: the kinact in data set [1] was 0.0083 s⁻¹; in data set [2] (setting [5]), 0.0115 s⁻¹. Also, the kinact/KI is 2430 M⁻¹ s⁻¹ in data set [1] and 1050 M⁻¹ s⁻¹ in data set [2] (Table 7).

As to `C=CC(=O)NCCCC[C@H](NC(=O)OCc1ccccc1)C(=O)N1CCN(S(=O)(=O)CC)CC1` [Compound 134, (S)-benzyl (6-acrylamido-1-(4-(ethylsulfonyl)piperazin-1-yl)-1-oxohexan-2-yl)carbamate], the kinact in data set [2] (setting [5]) was 0.0237 s⁻¹. Moreover, in data set [2] (Table 7), the kinact/KI is 657 M⁻¹ s⁻¹.

In the case of `C=CC(=O)NCCCC[C@H](NC(=O)OCc1ccccc1)C(=O)N1CCN(S(C)(=O)=O)CC1` [Compound 135, (S)-benzyl(6-acrylamido-1-(4-(methylsulfonyl)piperazin-1-yl)-1-oxohexan-2-yl)carbamate], the kinact was 0.0153 s⁻¹ in data set [1] and 0.00833 s⁻¹ in data set [2] (setting [5]). The kinact/KI was 2730 M⁻¹ s⁻¹ in data set [1] and 1310 M⁻¹ s⁻¹ in data set [2] (Table 7).

Turning to `C=CC(=O)NCCCC[C@H](NC(=O)OCc1ccccc1)C(=O)N1CCN(S(=O)(=O)c2cccs2)CC1` [Compound 136, (S)-benzyl(6-acrylamido-1-oxo-1-(4-(thiophen-2-ylsulfonyl)piperazin-1-yl)hexan-2-yl)carbamate], in data set [2] (setting [5]), the kinact is 0.0247 s⁻¹. Further, the kinact/KI in data set [2] (Table 7) was 613 M⁻¹ s⁻¹.

As to `C=CC(=O)NCCC[C@H](NC(=O)OCc1ccccc1)C(=O)N1CCN(C(=O)c2ccccc2)CC1` [Compound 149, (S)-benzyl (5-acrylamido-1-(4-benzoylpiperazin-1-yl)-1-oxopentan-2-yl)carbamate], in data set [2] (setting [3]), the inactivation rate constant (kinact) was 0.0795 s⁻¹. Also, the kinact/KI in data set [2] (Table 8) was 2170 M⁻¹ s⁻¹.

`C=CC(=O)NCCCC[C@H](NC(=O)OCc1ccccc1)C(=O)N1CCN(C(=O)Cc2ccccc2)CC1` [Compound 150, (S)-benzyl (6-acrylamido-1-oxo-1-(4-(2-phenylacetyl)piperazin-1-yl)hexan-2-yl)carbamate] gave a melting point of 48 to 49 °C. The kinact in data set [2] (setting [3]) was 0.0377 s⁻¹. The kinact/KI in data set [2] (Table 8) is 1880 M⁻¹ s⁻¹.

Take `C=CC(=O)NCCC[C@H](NC(=O)OCc1ccccc1)C(=O)N1CCN(C(C)=O)CC1` [Compound 151, (S)-benzyl(1-(4-acetylpiperazin-1-yl)-5-acrylamido-1-oxopentan-2-yl)carbamate]: the kinact in data set [2] (setting [3]) is 0.0343 s⁻¹. In addition, the “overall inhibition efficiency compared to sulfonamide counterpart” value in data set [2] (amide (Table 8) vs sulfonamide (Table 7)) was “almost three times less”. For the same compound, the kinact/KI in data set [2] (Table 8) was 615 M⁻¹ s⁻¹.

As for `C=CC(=O)NCCCC[C@H](NC(=O)OCc1ccccc1)C(=O)N1CCN(C(=O)c2ccccn2)CC1` [Compound 152, (S)-benzyl(6-acrylamido-1-oxo-1-(4-picolinoylpiperazin-1-yl)hexan-2-yl)carbamate], in data set [2] (Table 8), the “kinact” value came to 0.0488 ± 0.00483 s⁻¹ and the “kinact/KI (10^3M^−1 min^−1)” value is recorded as 91.3 ± 17.9 10^3M^−1 min^−1.

With `C=CC(=O)NCCCC[C@H](NC(=O)OCc1ccccc1)C(=O)N1CCN(C(=O)c2cccnc2)CC1` [Compound 153, (S)-benzyl (6-acrylamido-1-(4-nicotinoylpiperazin-1-yl)-1-oxohexan-2-yl)carbamate], in data set [2] (setting [3]), the inactivation rate constant (kinact) is 0.024 s⁻¹. The kinact/KI in data set [2] (Table 8) is 1020 M⁻¹ s⁻¹.

On to `C=CC(=O)NCCCC[C@H](NC(=O)OCc1ccccc1)C(=O)N1CCN(C(=O)c2ccncc2)CC1` [Compound 154, (S)-benzyl-(6-acrylamido-1-(4-isonicotinoylpiperazin-1-yl)-1-oxohexan-2-yl)carbamate], for which, in data set [2] (setting [3]), the maximal inactivation rate constant (kinact) was 0.0238 s⁻¹. In addition, the kinact/KI in data set [2] (Table 8) was 617 M⁻¹ s⁻¹.
